Measured values taken from patent publication US8609585B2 (priority 2008, dated 2013).
Read-outs that look alike come from different tables or passages of the source.

Key:
Format in all cases: in vivo
[1] = test system: Plasmopara viticola, pathogen of grape downy mildew; assay: Grape downy mildew control test, foliage application (Test Example 3)
Text: (§1) Control value=100(A−B)/A “Equation 1”
A plastic pot was filled with sandy soil, and grape (Berry A) was then disseminated. The grape was allowed to grow in a green house for 40 days. A wettable powder of the compound (1b) and a wettable powder of ethaboxam were respectively diluted with water and then tank-mixed so as to prepare tank-mixed liquids containing compound (1b) and ethaboxam in predetermined concentration. The tank-mixed liquids were subjected to foliage application such that they could be sufficiently adhered to the underside of the leaves of the aforementioned grape plants. After the foliage application, the plants were air-dried. Thereafter, an aqueous suspension of sporangia of Plasmopara viticola, pathogen of grape downy mildew, was sprayed on the grape plants to inoculate the pathogen. They were placed at 23° C. under high humidity for one day after the inoculation, cultured in a greenhouse at 23° C. for 5 days. The grape plants were thereafter placed at 23° C. under high humidity for one day and infected area was checked.
As a comparison, the respective wettable powders described above were diluted with water in predetermined concentration so as to prepare compound (1b) liquids and a ethaboxam liquid respectively and they were subjected to similar disease control test. In order to calculate the control value, the incidence of disease was also determined in the case in which the plants had not been treated with the agent. The relative incidence of disease of each treated area was determined as the incidence of disease of the area assuming that the incidence of disease of untreated area was represented as 100, and the control value was calculated by Equation 1 based on the incidence of disease thus determined.

[2] = test system: Pythium ultimum, pathogen of cucumber damping-off; assay: Cucumber damping-off control test, seed treatment (Test Example 2)
Procedure: as §1
Generally, the control value expected for the case in which the given two kinds of active ingredient compounds are mixed and used for the treatment, the so-called control value expectation is calculated from the following Colby's calculating equation. E=X+Y−(X×Y)/100 “Equation 2”
E: Control value (%) expected for the case in which active ingredient compound A in M ppm or in M g per 100 kg of seeds and active ingredient compound B in N ppm or in N g per 100 kg of seeds are mixed and used for treatment (hereinbelow referred to as “control value expectation”) “Synergetic effect(%)”=(Actual control value)×100/(Control value expectation)
An acetone solution of the compound (1b) and an acetone solution of ethaboxam were mixed to prepare mixed liquids containing the compound (1b) and ethaboxam in predetermined concentration. These mixed liquids were adhered on the surface of cucumber (Sagamihanjiro) seeds and allowed to stand still overnight to obtain treated seeds. A plastic pot was filled with sandy soil and the treated seeds were disseminated on it. Then the seeds were covered with sandy soil which had been mixed with a bran medium on which Pythium ultimum, pathogen of cucumber damping-off, had been allowed to grow. They were irrigated and allowed to grow at 18° C. under humidity for 13 days, and thereafter control effect was checked. The incidence of disease was calculated by Equation 3 and the control value was calculated by Equation 1 based on the incidence of disease.
As a comparison, acetone solutions containing the compound (1b) in the predetermined concentration and an acetone solution containing ethaboxam in the predetermined concentration were prepared and subjected to similar tests. Incidence of disease=(Number of no emerging seedlings and number of seedlings in which development of disease was observed)×100/(Number of total disseminated seeds) “Equation 3”

[3] = test system: Phytophthora infestans, pathogen of tomato late blight; details: foliage application

Row | Structure (SMILES) | Actual control value ([1]; compound (1b) 2 ppm alone) | Actual control value ([2]; compound (1b) 5 g ai/100 kg-seed alone) | Actual control value ([2]; compound (1b) 10 g ai/100 kg-seed alone) | Actual control value ([2]; compound (1b) 20 g ai/100 kg-seed alone) | Actual control value ([3]; compound (1b) 10 ppm alone) | Actual control value ([3]; compound (1b) 50 ppm alone) | Actual control value ([1]; ethaboxam 0.4 ppm alone) | Actual control value ([1]; ethaboxam 2 ppm alone) | Actual control value ([2]; ethaboxam 10 g ai/100 kg-seed alone) | Actual control value ([3]; ethaboxam 0.4 ppm alone)
1 | CNC(=O)C(OC)c1ccccc1COc1cc(C)ccc1C (racemic) [Compound (1b)] | 2% | 6.7% | 6.7% | 13% | 5% | 25% |  |  |  | 
2 | CCNc1nc(CC)c(C(=O)NC(C#N)c2cccs2)s1 (stereo not shown) [Ethaboxam, ethaboxam, reference compound] |  |  |  |  |  |  | 1% | 35% | 73% | 10%
